The values that follow come from ChEMBL document CHEMBL1201862, “PubChem BioAssay data set” (2004).

The term GI50 denotes the concentration that inhibits growth by half.

Among the test systems are A549; CAKI-1; HCT-15; HOP-62; K562; NCI-H226; NCI-H460; OVCAR-4; OVCAR-5; RPMI-8226; SF-268; SF-539; SK-MEL-2; SK-MEL-5; SNB-19; SNB-75; SW-620; U-251; UACC-257; Malme-3M.
What all share (assay): DTP human tumour cell line panel, 48 h

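Interpolation was linear, between the two tested concentrations surrounding the appropriate level; five concentrations were tested over 48 hours in 96-well plates. GI50 is the concentration that inhibits growth by half.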 The source made the active and inactive calls. No stated cut-off is given here; in the data, active = GI50 up to about 1.1 µM and inactive = higher. Some results are limits rather than exact numbers.

Take `Cn1c(-c2cccs2)cc(-c2ccccc2)c1-c1cccs1`: the GI50 with A549 was 12.3 µM (inactive); in the assay on CAKI-1, 93.5 µM (inactive); with HCT-15, > 100 µM; in the assay on HOP-62, 18.2 µM (inactive); with K562 it was > 100 µM (inactive); with NCI-H226, 45.4 µM (inactive). The GI50 in the assay on NCI-H460 is > 100 µM (inactive); with OVCAR-4, 74.3 µM (inactive); in the assay with OVCAR-5, 88.5 µM (inactive); in the assay on RPMI-8226 it was > 100 µM (inactive); with SF-268, > 100 µM (inactive); in the assay on SF-539, 43.8 µM (inactive). The GI50 was 25.5 µM (inactive) in the assay on SK-MEL-2; 18.6 µM (inactive) with SK-MEL-5; 12.2 µM (inactive) in the assay on SNB-19; > 100 µM (inactive) in the assay with SNB-75; > 100 µM (inactive) with SW-620; 47.8 µM (inactive) in the assay on U-251. The GI50 in the assay on UACC-257 was 48.2 µM (inactive).
`O/N=C1\C(=C\c2ccc3c(c2)OCCO3)CCCC1C(NO)c1ccc2c(c1)OCCO2` (centres undefined): the GI50 with A549 is 25.2 µM (inactive); in the assay with CAKI-1 it was 32.4 µM (inactive); in the assay with HCT-15, 22.5 µM; in the assay on HOP-62, 22 µM (inactive); in the assay on Malme-3M it was 25.4 µM (inactive); in the assay with NCI-H460 it was 20.5 µM (inactive). The GI50 was 30.1 µM (inactive) with OVCAR-4; 32.6 µM (inactive) with OVCAR-5; 16.3 µM (inactive) with RPMI-8226; 18.2 µM (inactive) with SF-268; 13.4 µM (inactive) in the assay on SF-539; 16.4 µM (inactive) in the assay with SK-MEL-5. The GI50 is 38.7 µM (inactive) with SNB-19; 28.7 µM (inactive) with SNB-75; 32.2 µM (inactive) in the assay on SW-620; 19.3 µM (inactive) with U-251; 20.4 µM (inactive) in the assay with UACC-257.
`CC(C)(C)CC(C)(C)c1cc2c(O)c(c1)Cc1cc(C(C)(C)CC(C)(C)C)cc(c1O)Cc1cc(C(C)(C)CC(C)(C)C)cc(c1O)Cc1cc(C(C)(C)CC(C)(C)C)cc(c1O)Cc1cc(C(C)(C)CC(C)(C)C)cc(c1O)C2`: the GI50 in the assay with A549 is > 100 µM (inactive); in the assay on HCT-15, > 100 µM; with HOP-62, > 100 µM (inactive); with K562 it was > 100 µM (inactive); in the assay on Malme-3M, > 100 µM (inactive); in the assay on NCI-H460, > 100 µM (inactive). Also, the GI50 in the assay with OVCAR-4, in the assay on OVCAR-5, with RPMI-8226, in the assay on SF-268, in the assay with SF-539 and in the assay with SK-MEL-2 was > 100 µM (inactive) each time. Also, the GI50 in the assay on SK-MEL-5, in the assay with SNB-19, with SNB-75, in the assay with SW-620, in the assay with U-251 and in the assay on UACC-257 was > 100 µM (inactive) each time.
Turning to `CC1(C)C/C(=N/O)c2c(nc3ccc4ccccc4c3c2-c2ccc(Cl)cc2)C1`, the GI50 in the assay with A549 was 19.4 µM (inactive); in the assay on CAKI-1, 13.5 µM (inactive); in the assay on HCT-15 it was 16.4 µM; with HOP-62, 23.2 µM (inactive); in the assay on K562, 19 µM (inactive); in the assay on NCI-H226, 21 µM (inactive). Also, the GI50 was 6.14 µM (inactive) in the assay on NCI-H460; 13.8 µM (inactive) in the assay with OVCAR-4; 40.7 µM (inactive) with OVCAR-5; 27.2 µM (inactive) in the assay on RPMI-8226; 14.2 µM (inactive) in the assay on SF-268; 16.6 µM (inactive) in the assay on SF-539. Moreover, the GI50 with SK-MEL-2 was 43.7 µM (inactive); with SK-MEL-5 it was 37.2 µM (inactive); in the assay on SNB-19, 35 µM (inactive); with SNB-75, 16.2 µM (inactive); in the assay on SW-620, 18.3 µM (inactive); in the assay on U-251, 11.5 µM (inactive). Besides, the GI50 in the assay with UACC-257 was 25.4 µM (inactive).
As for `Cc1c(OCCCOc2ccc3c(=O)cc(-c4ccccc4)oc3c2C)ccc2c(=O)cc(-c3ccccc3)oc12`, the GI50 in the assay with A549 was > 100 µM (inactive); in the assay with CAKI-1 it was > 100 µM (inactive); with HCT-15, > 100 µM; with HOP-62, 61.1 µM (inactive); in the assay on K562 it was 59.2 µM (inactive); in the assay with Malme-3M it was > 100 µM (inactive). The GI50 with NCI-H460, in the assay with OVCAR-5, in the assay on RPMI-8226, in the assay on SF-268, in the assay on SF-539 and in the assay on SK-MEL-2 was > 100 µM (inactive) in each case. Also, the GI50 in the assay with SK-MEL-5, with SNB-19, in the assay on SW-620, in the assay on U-251 and in the assay on UACC-257 was > 100 µM (inactive) in each case.
As for `COC12OCCN(C)C1=CC(=O)C1N=NCC12` (centres undefined), the GI50 was > 100 µM (inactive) with A549; > 100 µM (inactive) in the assay on CAKI-1; > 100 µM in the assay on HCT-15; > 100 µM (inactive) in the assay with K562; > 100 µM (inactive) in the assay with NCI-H226; > 100 µM (inactive) with NCI-H460. The GI50 with RPMI-8226, in the assay with SF-539, in the assay on SK-MEL-5, in the assay on SNB-75, in the assay on SW-620 and in the assay on U-251 was > 100 µM (inactive) in each case. Moreover, the GI50 with UACC-257 was > 100 µM (inactive).
Turning to `O=C1Nc2cccc3ncn(c23)C2=C1CCCC2`, the GI50 in the assay with A549 is > 100 µM (inactive); in the assay on HCT-15, > 100 µM; in the assay on K562, > 100 µM (inactive); with Malme-3M, > 100 µM (inactive); in the assay with NCI-H460, > 100 µM (inactive); in the assay with OVCAR-5, > 100 µM (inactive). The GI50 in the assay with RPMI-8226, in the assay with SF-268, with SF-539, with SK-MEL-2, with SK-MEL-5 and in the assay with SNB-19 was > 100 µM (inactive) each time. In addition, the GI50 in the assay with SW-620, with U-251 and in the assay on UACC-257 was > 100 µM (inactive) in each case.
`CCC1(Br)C(=O)NC(=O)N(C2CC(O)C(CO)O2)C1N=[N+]=[N-]` (centres undefined): the GI50 in the assay on A549, in the assay with CAKI-1, in the assay on HOP-62, in the assay on K562, in the assay with Malme-3M and in the assay with NCI-H460 was > 100 µM (inactive) each time. For the same molecule, the GI50 with OVCAR-4, with OVCAR-5, in the assay on RPMI-8226, with SF-268, with SF-539 and with SK-MEL-2 was > 100 µM (inactive) each time. Moreover, the GI50 in the assay on SK-MEL-5 was > 100 µM (inactive); in the assay with SNB-19, > 100 µM (inactive); with SNB-75, > 100 µM (inactive); in the assay on SW-620, > 100 µM (inactive); in the assay on U-251, > 100 µM (inactive); with UACC-257 it was 83.6 µM (inactive).
As for `COc1ccc(C2(O)C(S(=O)(=O)c3ccc(C)cc3)=Cc3ccc(OC)cc32)cc1` (centres undefined), the GI50 was > 100 µM (inactive) in the assay on A549; > 100 µM in the assay with HCT-15; 21.2 µM (inactive) in the assay on HOP-62; > 100 µM (inactive) with K562; > 100 µM (inactive) in the assay with NCI-H226; > 100 µM (inactive) in the assay with NCI-H460. Besides, the GI50 in the assay with OVCAR-5 was > 100 µM (inactive); in the assay on RPMI-8226 it was > 100 µM (inactive); in the assay on SF-268 it was 31.6 µM (inactive); in the assay with SF-539 it was 43.5 µM (inactive); in the assay on SK-MEL-2, 43.2 µM (inactive); in the assay on SK-MEL-5 it was > 100 µM (inactive). The GI50 in the assay with SNB-19 is 43.7 µM (inactive); in the assay on SNB-75, 25.9 µM (inactive); in the assay with SW-620, > 100 µM (inactive); with U-251 it was 41.2 µM (inactive); with UACC-257 it was > 100 µM (inactive).
With `NC(=O)C(=CNC(=S)Nc1cccc(C(F)(F)F)c1)C(N)=O`, the GI50 in the assay with A549 was > 100 µM (inactive); in the assay on CAKI-1 it was 28.4 µM (inactive); in the assay with HOP-62 it was > 100 µM (inactive); in the assay on K562, > 100 µM (inactive); with NCI-H226, > 100 µM (inactive); with NCI-H460, > 100 µM (inactive). Besides, the GI50 in the assay with OVCAR-4, with OVCAR-5, with RPMI-8226, with SF-268, with SF-539 and in the assay with SK-MEL-2 was > 100 µM (inactive) each time. For the same molecule, the GI50 in the assay with SK-MEL-5 was > 100 µM (inactive); in the assay with SNB-19, > 100 µM (inactive); with SNB-75, 51.9 µM (inactive); in the assay on SW-620, > 100 µM (inactive); with U-251 it was > 100 µM (inactive); in the assay with UACC-257, > 100 µM (inactive).
Consider `CC1=CC2C(C=C1)S(=O)(=O)N1CC21c1ccccc1` (centres undefined), for which the GI50 was > 100 µM (inactive) in the assay with A549; 44.2 µM (inactive) in the assay on CAKI-1; > 100 µM in the assay with HCT-15; > 100 µM (inactive) in the assay on HOP-62; 69.2 µM (inactive) with K562; > 100 µM (inactive) with Malme-3M. Also, the GI50 in the assay on NCI-H460, with OVCAR-5, with RPMI-8226, with SF-268, in the assay with SF-539 and in the assay with SK-MEL-2 was > 100 µM (inactive) in each case. Moreover, the GI50 with SK-MEL-5, in the assay with SNB-19, in the assay on SNB-75, in the assay on SW-620, in the assay on U-251 and in the assay with UACC-257 was > 100 µM (inactive) each time.
